{"source": "PubChem BioAssay AID2305", "about": "(GlaxoSmithKline (GSK), 2010)"}
{"test_system": "P. falciparum 3D7 growth, pLDH absorbance", "test": "P. falciparum 3D7 growth inhibition, dose response, strain 3D7 (AID 2305)", "units": {"IC50": "nM"}}
{"smiles": "CC(CN(C)C)C(=O)Nc1cccc(-c2ccc(-c3nc4ccc(F)cc4[nH]3)s2)c1", "note": "(configuration not stated)", "IC50": 800}
{"smiles": "O=C(NCC1CC1)C1CCN(C(c2ccc(Cl)cc2)c2ccc(Cl)cc2)CC1", "IC50": 190}
{"smiles": "COc1cc(NC(=O)CCCCCCCCN2CCN(C)CC2)c2ncccc2c1", "IC50": 890}
{"smiles": "CS(=O)(=O)CCNCc1nc(-c2ccc3ncnc(Nc4ccc(OCc5ccccc5)c(Cl)c4)c3c2)cs1", "IC50": 800}
{"smiles": "COc1c(OC)c(OC)c2ccccc2c1CNCCCCCCNCc1c(OC)c(OC)c(OC)c2ccccc12", "IC50": 760}
{"smiles": "Cc1cccc2[nH]c(-c3cccc(-c4ccc(NC(=O)c5cnccc5C(F)(F)F)cc4)c3)nc12", "IC50": 700}
{"smiles": "CC(C)(C)C1CC(=O)C[C@@H]2C(=O)N(c3ccc(Br)cc3)C(=O)[C@H]12", "note": "(some centres not stated)", "IC50": 930}
{"smiles": "COC(=O)c1c(NC(=O)c2cccc(C(F)(F)F)c2)sc2c1CCN(Cc1ccccc1)C2", "IC50": 1340}
{"smiles": "Cc1nc(-c2ccncc2)sc1C(=O)Nc1ccc(Cl)cc1C(=O)Nc1ccc(Cl)cc1", "IC50": 760}
{"smiles": "CN(C)c1cccc2c1nc(-c1ccco1)n2CCNCc1ccccc1", "IC50": 810}
{"smiles": "O=c1cc(NCCCNCc2cc(C(F)(F)F)ccc2Cl)[nH]c2ccccc12", "IC50": 1020}
{"smiles": "N#Cc1ccc(N(CCOC(=O)c2ccc(Br)s2)Cc2ccccc2C(F)(F)F)cc1C(F)(F)F", "IC50": 1070}
{"smiles": "O=C(Cc1ccc(NC(=O)c2ccc(O)c(-c3ccc(Cl)c(Cl)c3)c2)cc1)NCCc1ccc(Cl)c(Cl)c1", "IC50": 720}
{"smiles": "CN1CC=C(c2c[nH]c3ccc(Br)cc23)CC1", "IC50": 1190}
{"smiles": "CCOc1c(Cl)cc(Cl)cc1CNCCCNc1nc2ccccc2[nH]1", "IC50": 830}
{"smiles": "O=S(=O)(Nc1cccc(CCN2CCC(N3CCCCC3)CC2)c1)c1cccc2ccccc12", "IC50": 940}
{"smiles": "O=C(O)c1ccc2c(c1)N(C(=O)CNCc1ccc(F)cc1)CC(=O)N2CCCc1ccccc1", "IC50": 920}
{"smiles": "Cc1cc(CN2C(=O)C(c3ccccc3)(c3ccccc3)N=C2N)c(C(F)(F)F)o1", "IC50": 960}
{"smiles": "COc1ccc(NC(=O)c2cn(-c3ccc(C(C)(C)C)cc3)nc2C)cc1N1CCN(C)CC1", "IC50": 950}
{"smiles": "NC1=NC(=O)C(=Cc2cn(-c3ccccc3)nc2-c2cccc(S(=O)(=O)N3CCCC3)c2)S1", "IC50": 1140}
{"smiles": "FC(F)(F)c1ccc2c(NCCNc3ccnc4cc(C(F)(F)F)ccc34)ccnc2c1", "IC50": 30}
{"smiles": "Cc1ccc(S(C)(=O)=O)cc1/C=C/C(=O)O", "IC50": 870}
{"smiles": "COc1cc2nc(N3CCN(c4nc(N)c5cc(OC)c(OC)cc5n4)CC3)nc(N)c2cc1OC", "IC50": 150}
{"smiles": "O=C(Nc1cc(C(F)(F)F)cc(C(F)(F)F)c1)N1CCC(CN2CCC(c3c[nH]c4ccccc34)CC2)CC1", "IC50": 190}
{"smiles": "Cn1c(N)c(N=O)c(=O)[nH]c1=O", "IC50": 180}
{"smiles": "COc1cc(NC(=O)c2ccc(-c3ccc(C(C)=O)cc3)s2)ccc1OCCN1CCCC1", "IC50": 150}
{"smiles": "O=C(/C=C/c1ccccc1Cl)Nc1ccc(Br)c(OCCN2CCN(CCN3CCCC3)CC2)c1", "IC50": 650}
{"smiles": "N#Cc1ccc(NC(=O)c2ccc(C(=O)NCCCCN3CCC(c4ccc5c(c4OCCOC4CCCCO4)CCCC5)CC3)cc2)cc1", "note": "(configuration not stated)", "IC50": 580}
{"smiles": "CCOc1cc(CC)ccc1C1CCN(CCN2CCC(NC(=O)c3ccc(-c4ccc(C#N)cc4)cc3)CC2)CC1", "IC50": 610}
{"smiles": "c1ccc2[nH]c(CN(Cc3nc4ccccc4[nH]3)Cc3nc4ccccc4[nH]3)nc2c1", "IC50": 670}
{"smiles": "CC(C)Cc1nc(N)nc(N)c1-c1ccc(Cl)cc1", "IC50": 140}
{"smiles": "CCCc1cn2c3c(cc(C(=O)N[C@@H](Cc4ccccc4)[C@H](O)CNC4CCOCC4)cc13)N(C)S(=O)(=O)CC2", "IC50": 50}
{"smiles": "O=C(Nc1cccc(-c2cccc(-c3nc4ccc(F)cc4[nH]3)c2)c1)c1ccncc1", "IC50": 510}
{"smiles": "Cc1cccc2[nH]c(-c3cccc(-c4cccc(NC(=O)COc5ccccc5C(N)=O)c4)c3)nc12", "IC50": 160}
{"smiles": "CCCCCc1cc(O)c2c(c1)OC(C)(C)C=C2C1=CCN(Cc2ccsc2)CC1", "IC50": 960}
{"smiles": "CCc1cn(C)c2c(N3CCCC3=O)cc(C(=O)N[C@@H](Cc3ccccc3)[C@H](O)CNC(C)(C)c3cccc(C(F)(F)F)c3)cc12", "IC50": 110}
{"smiles": "CCc1ccc(CN(CCCOc2cccc(CC(=O)NCc3cnc[nH]3)c2)Cc2ccc(-n3ccnc3)cc2)cc1", "IC50": 980}
{"smiles": "COc1ccc(CN2CCC(CNC(C)c3cccc4ccccc34)CC2)cc1", "note": "(configuration not stated)", "IC50": 180}
{"smiles": "O=C(/C=C/c1ccc(Cl)c(Cl)c1)NC1CCC(CN2CC[C@H](c3c[nH]c4ccccc34)[C@@H](O)C2)CC1", "note": "(some centres not stated)", "IC50": 720}
{"smiles": "O=C(c1ccccc1F)N(Cc1ccc(Cl)cc1)c1ccccn1", "IC50": 1020}
{"smiles": "Oc1cccc(Nc2ccnc3cc(-c4ccncc4)ccc23)c1", "IC50": 1050}
{"smiles": "COc1ccc(-c2cnc3ccc(NCc4ccc(S(N)(=O)=O)cc4)nn23)cn1", "IC50": 870}
{"smiles": "CN=C(NO)NCCN(C)C", "IC50": 1180}
{"smiles": "Oc1cc(Nc2ccnc3cc(-c4cccc(CN5CCCCC5)c4)ccc23)c(F)cc1Cl", "IC50": 100}
{"smiles": "O=C(Nc1ccc(Cl)cc1Cl)N[C@H]1CCN(CCCCCNC(=O)[C@@H]2C[C@H]2c2ccc(Cl)c(Cl)c2)C1", "IC50": 990}
{"smiles": "Clc1ccc(OCc2ccccc2)c(Cc2ccc(-c3nc4ccncc4[nH]3)o2)c1", "IC50": 750}
{"smiles": "O[C@H]1[C@H](OCc2ccc(-c3ccccc3)cc2)CC[C@@H]1N1CCCCC1", "IC50": 1060}
